Experimental data: patent US7709482B2, “Polycyclic heteroaryl substituted triazoles useful as Axl inhibitors” (Rigel Pharmaceuticals, Inc., priority 2006, dated 2010)

target: T1, Axl (Homo sapiens, UniProt P30530); experiment: Phospho-Akt In-Cell Western Assay (inhibition of Axl activity after Axl-antibody cross-linking); format: cell-based; settings: not given
T1 construct: endogenous in cells; host or cells: HeLa cells
T1 sequence (P30530 26-894): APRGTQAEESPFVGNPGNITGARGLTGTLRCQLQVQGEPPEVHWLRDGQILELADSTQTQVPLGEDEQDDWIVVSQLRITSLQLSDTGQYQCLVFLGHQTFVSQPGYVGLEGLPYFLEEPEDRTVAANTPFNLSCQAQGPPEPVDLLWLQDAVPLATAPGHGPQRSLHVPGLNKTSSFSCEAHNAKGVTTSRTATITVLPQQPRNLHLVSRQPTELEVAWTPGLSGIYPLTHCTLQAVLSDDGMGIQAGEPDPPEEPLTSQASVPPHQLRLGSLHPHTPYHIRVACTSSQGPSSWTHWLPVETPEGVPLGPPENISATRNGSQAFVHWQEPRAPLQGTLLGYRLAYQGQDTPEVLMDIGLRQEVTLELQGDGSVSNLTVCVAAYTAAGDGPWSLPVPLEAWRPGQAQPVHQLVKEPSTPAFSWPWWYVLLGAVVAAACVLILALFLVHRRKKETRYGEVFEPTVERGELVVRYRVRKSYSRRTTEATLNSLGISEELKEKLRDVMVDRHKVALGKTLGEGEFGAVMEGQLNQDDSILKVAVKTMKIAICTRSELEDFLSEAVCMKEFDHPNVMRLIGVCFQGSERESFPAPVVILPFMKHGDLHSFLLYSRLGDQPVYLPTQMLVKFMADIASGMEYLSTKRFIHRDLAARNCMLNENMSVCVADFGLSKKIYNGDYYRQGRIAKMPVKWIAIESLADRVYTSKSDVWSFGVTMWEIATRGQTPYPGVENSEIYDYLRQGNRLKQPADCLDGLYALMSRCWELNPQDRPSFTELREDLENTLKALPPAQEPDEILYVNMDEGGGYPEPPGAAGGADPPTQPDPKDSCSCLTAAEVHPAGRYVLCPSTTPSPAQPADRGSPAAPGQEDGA
Procedure: The compounds of the invention were tested in the following assay for their ability to inhibit Axl activity.
Phospho-Akt In-Cell Western Assay
• Cell culture plate: 96 well assay plate (Corning 3610), white, clear bottom, tissue-culture treated. • Cells: Hela cells. • Starvation medium: For Axl stimulation: 0.5% FCS (fetal calf serum) in DMEM, plus Axl/Fc (extracellular domain of AXL fused to immunoglobulin Fc region) (R&D, 154-AL) 500 ng/mL. • For EGF (epidermal growth factor) stimulation: 0.5% FCS in DMEM (Dulbecco's modified Eagles medium). • Poly-L-Lysine 0.01% solution (the working solution): […], dilute In PBS (phosphate buffered saline). • Axl antibody cross-linking: • 1st: Mouse anti-Axl (R&D, MAB154). • 2nd: Biotin-SP-conjugated AffiniPure goat anti-mouse IgG (H+ L) (Jackson ImmunoResearch #115-065-003). • Fixing buffer: 4% formaldehyde in PBS. • Wash buffer: 0.1% TritonX-100 in PBS. • Quenching buffer: 3% H2O2, 0.1% Azide in wash buffer, Azide and hydrogen peroxide (H2O2) are added fresh. • Blocking buffer: 5% BSA in TBST (tris buffered saline plus 0.1% Tween 20). • Primary antibody: Rabbit anti-human Phospho-Akt antibody (Cell Signaling 9271): 1×250 diluted in blocking buffer. • Secondary antibody: HRP (horse radish peroxidase)-conjugated Goat anti-Rabbit secondary, stock solution: Jackson ImmunoResearch (Goat anti-Rabbit HRP, #111-035-144) 1:1 diluted in glycerol, store at −20° C. The working solution: 1×2000 dilution of stock in blocking buffer. • Chemiluminescent working solution (Pierce, 37030): SuperSignal ELISA (enzyme linked immunosorbant assay) Pico Chemiluminescent substrate. • Crystal Violet solution: Stock: 2.5% Crystal violet in methanol, filtered and kept at ambient temperature. The working solution: dilute the stock 1:20 with PBS immediately before use. • 10% SDS: working solution: 5% SDS (sodium dodecylsulfate), diluted in PBS Methods: Day 1:
A 96 well TC (tissue culture treated) plate was coated with 10 μg/mL poly-L-Lysine at 37° C. for 30 min, washed twice with PBS, and air-dried for 5 minutes before cells were added. Hela cells were seeded at 10,000 cells/well and the cells were starved in 100 μL starvation medium containing Axl/Fc for 24 hrs.
The cells were pre-treated with test compounds by adding 100 μL of 2× test compound to the starvation medium on the cells. The cells were incubated at 37° C. for 1 hr before stimulation.
The resulting mix was warmed to 37° C. 50 μL of 5×Axl 1st/2nd of antibody cluster was added to the cells and the cells were incubated at 37° C. for 5 min.
After 5 minutes stimulation, the plate was flicked to remove medium and the plate was tapped onto paper towels. Formaldehyde (4.0% in PBS, 100 μL) was added to fix the cells and the cells were incubated at ambient temperature for 20 min without shaking.
The cells were washed with a plate washer buffer to remove the formaldehyde solution. The plate was flicked to removed excess wash buffer and tapped onto paper towels. Quenching buffer (100 μL) was added to each well and the cells were incubated at ambient temperature for 20 minutes without shaking.
The cells were washed with a plate washer buffer to remove the quenching buffer. Blocking buffer (100 μL) was added and the cells were incubated at ambient temperature for at least an hour with gentle shaking.
The cells were washed with a plate washer buffer and diluted primary antibody (50 μL) was added to each well (blocking buffer was added to the negative control wells instead). The plates were incubated overnight at 4° C. with gentle shaking.
The wash buffer was removed, diluted secondary antibody (100 μL) was added, and the cells were incubated at ambient temperature for 1 hour with gentle shaking. During the incubation, the chemiluminescent reagent was brought to ambient temperature.
The secondary antibody was removed by washing the cells 1× with wash buffer, 1× with PBS by plate washer.

Structure (SMILES)	IC50
Nc1nc(Nc2ccc(N3CCC(N4C(=O)Cc5ccccc54)CC3)c(F)c2)nn1-c1cc2c(nn1)-c1ccccc1CCC2 [Compound 7, 1-(6,7-dihydro-5H-benzo[6,7]cyclohepta[1,2-c]pyridazin-3-yl)-N^3-(3-fluoro-4-(4-(indolin-2-on-1-yl)piperidin-1-yl)phenyl)-1H-1,2,4-triazole-3,5-diamine]	> 20 µM

same assay, conditions: Hela cells, phospho-Akt chemiluminescence normalized to relative cell number; compounds of formula (Ia), Table 1; read-out: IC50

Structure (SMILES)	IC50
Nc1nc(Nc2ccc(OCCN3CCCC3)cc2)nn1-c1cc2c(nn1)-c1ccccc1CCC2 [Compound 1, 1-(6,7-dihydro-5H-benzo[6,7]cyclohepta[1,2-c]pyridazin-3-yl)-N^3-(4-(2-(pyrrolidin-1-yl)ethoxy)phenyl)-1H-1,2,4-triazole-3,5-diamine]	< 1 µM
Nc1nc(Nc2ccc(N3CCN(C4CCCCC4)CC3)cc2)nn1-c1cc2c(nn1)-c1ccccc1CCC2 [Compound 3, N^3-(4-(4-cyclohexanylpiperazin-1-yl)phenyl)-1-(6,7-dihydro-5H-benzo[6,7]cyclohepta[1,2-c]pyridazin-3-yl)-1H-1,2,4-triazole-3,5-diamine]	< 1 µM
Nc1nc(Nc2ccc(N3CCC(N4CCCC4)CC3)c(F)c2)nn1-c1cc2c(nn1)-c1ccccc1CCC2 [Compound 4]	< 1 µM
CN1CCN(c2ccc(Nc3nc(N)n(-c4cc5c(nn4)-c4ccccc4CCC5)n3)cc2F)CC1c1ccccc1 (stereo not drawn) [Compound 5, 1-(6,7-dihydro-5H-benzo[6,7]cyclohepta[1,2-c]pyridazin-3-yl)-N^3-(3-fluoro-4-(4-methyl-3-phenylpiperazin-1-yl)phenyl)-1H-1,2,4-triazole-3,5-diamine]	> 20 µM
Nc1nc(Nc2ccc(N3CCC(N4CCCCC4)CC3)c(F)c2)nn1-c1cc2c(nn1)-c1ccccc1CCC2 [Compound 6, 1-(6,7-dihydro-5H-benzo[6,7]cyclohepta[1,2-c]pyridazin-3-yl)-N^3-(3-fluoro-(4-(4-piperidin-1-yl)piperidin-1-yl)phenyl)-1H-1,2,4-triazole-3,5-diamine]	< 1 µM
Nc1nc(Nc2ccc(N3CCN(C4CC5CCC4C5)CC3)nc2)nn1-c1cc2c(nn1)-c1ccccc1CCC2 (stereo not drawn) [Compound 8, 1-(6,7-dihydro-5H-benzo[6,7]cyclohepta[1,2-c]pyridazin-3-yl)-N^3-(6-(4-(bicyclo[2.2.1]heptan-2-yl)piperazin-1-yl)pyridin-3-yl)-1H-1,2,4-triazole-3,5-diamine]	1 to 10 µM
Nc1nc(Nc2ccc(N3CCC(N4CCOCC4)CC3)c(F)c2)nn1-c1cc2c(nn1)-c1ccccc1CCC2 [Compound 9, 1-(6,7-dihydro-5H-benzo[6,7]cyclohepta[1,2-c]pyridazin-3-yl)-N^3-(3-fluoro-4-(4-(morpholin-4-yl)piperidin-1-yl)phenyl)-1H-1,2,4-triazole-3,5-diamine]	1 to 10 µM
Nc1nc(Nc2ccc(C(=O)N3CCN(C4CCCC4)CC3)cc2)nn1-c1cc2c(nn1)-c1ccccc1CCC2 [Compound 10, 1-(6,7-dihydro-5H-benzo[6,7]cyclohepta[1,2-c]pyridazin-3-yl)-N^3-(4-(4-(cyclopentyl)piperazin-1-ylcarbonyl)phenyl)-1H-1,2,4-triazole-3,5-diamine]	1 to 10 µM
Nc1nc(Nc2ccc3c(c2)NC(=O)CCC3)nn1-c1cc2c(nn1)-c1ccccc1CCC2 [Compound 11, 1-(6,7-dihydro-5H-benzo[6,7]cyclohepta[1,2-c]pyridazin-3-yl)-N^3-(4,5-dihydro-1H-benzo[b]azepin-2(3H)-on-8-yl)-1H-1,2,4-triazole-3,5-diamine]	< 1 µM
Nc1nc(Nc2ccc(C(=O)NCCN3CCCC3)cc2)nn1-c1cc2c(nn1)-c1ccccc1CCC2 [Compound 12, 1-(6,7-dihydro-5H-benzo[6,7]cyclohepta[1,2-c]pyridazin-3-yl)-N^3-(4-((2-pyrrolidin-1-ylethyl)aminocarbonyl)phenyl)-1H-1,2,4-triazole-3,5-diamine]	< 1 µM
CN(C)Cc1nc2cc(Nc3nc(N)n(-c4cc5c(nn4)-c4ccccc4CCC5)n3)ccc2[nH]1 [Compound 13, 1-(6,7-dihydro-5H-benzo[6,7]cyclohepta[1,2-c]pyridazin-3-yl)-N^3-(2-((dimethylamino)methyl)-1H-benzo[d]imidazol-5-yl)-1H-1,2,4-triazole-3,5-diamine]	1 to 10 µM
CC1(C)CCCC(C)(C)N1CCOc1ccc(Nc2nc(N)n(-c3cc4c(nn3)-c3ccccc3CCC4)n2)cc1 [Compound 14, 1-(6,7-dihydro-5H-benzo[6,7]cyclohepta[1,2-c]pyridazin-3-yl)-N^3-(4-(2,2,6,6-tetramethylpiperidin-1-yl)ethoxyphenyl)-1H-1,2,4-triazole-3,5-diamine]	1 to 10 µM
CC1CN(C2CCCC2)CCN1c1ccc(Nc2nc(N)n(-c3cc4c(nn3)-c3ccccc3CCC4)n2)cc1 (stereo not drawn) [Compound 16, 1-(6,7-dihydro-5H-benzo[6,7]cyclohepta[1,2-c]pyridazin-3-yl)-N^3-(4-(4-cyclopentyl-2-methylpiperazin-1-yl)phenyl)-1H-1,2,4-triazole-3,5-diamine]	< 1 µM
CC1CN(c2ccc(Nc3nc(N)n(-c4cc5c(nn4)-c4ccccc4CCC5)n3)cc2)CC(C)N1 (stereo not drawn) [Compound 17, 1-(6,7-dihydro-5H-benzo[6,7]cyclohepta[1,2-c]pyridazin-3-yl)-N^3-(4-(3,5-dimethylpiperazin-1-yl)phenyl)-1H-1,2,4-triazole-3,5-diamine]	< 1 µM
N#Cc1cc(Nc2nc(N)n(-c3cc4c(nn3)-c3ccccc3CCC4)n2)ccc1N1CCC(N2CCCC2)CC1 [Compound 18, 1-(6,7-dihydro-5H-benzo[6,7]cyclohepta[1,2-c]pyridazin-3-yl)-N^3-(4-(4-(pyrrolidin-1-yl)piperidin-1-yl)-3-cyanophenyl)-1H-1,2,4-triazole-3,5-diamine]	< 1 µM
CN(C)CCNC(=O)c1ccc(Nc2nc(N)n(-c3cc4c(nn3)-c3ccccc3CCC4)n2)cc1 [Compound 19, 1-(6,7-dihydro-5H-benzo[6,7]cyclohepta[1,2-c]pyridazin-3-yl)-N^3-(4-((2-(dimethylamino)ethyl)-aminocarbonyl)phenyl)-1H-1,2,4-triazole-3,5-diamine]	1 to 10 µM
COCCNC(=O)c1ccc(Nc2nc(N)n(-c3cc4c(nn3)-c3ccccc3CCC4)n2)cc1 [Compound 20, 1-(6,7-dihydro-5H-benzo[6,7]cyclohepta[1,2-c]pyridazin-3-yl)-N^3-(4-((2-(methoxy)ethyl)amino-carbonyl)phenyl)-1H-1,2,4-triazole-3,5-diamine]	1 to 10 µM
